Results: US6683105B2 (priority 1997, dated 2004)
“Also recorded” adds a separate entry of the source.

Key:
human plasma BChE = biological target: T1, human plasma BChE (Homo sapiens, UniProt P06276); assay: BChE inhibition, IC(50) by logit plot; assay type: biochemical; settings: BChE compared with AChE
T1 construct: human plasma BChE; from tissue; host or cells: human plasma
Description: The IC (50) values can be determined for such inhibitors using methods well known in the art. In such assay the pharmacological activity of each compound, as an IC (50), defined as the concentration, in nanomoles, required to inhibit 50% of the enzyme activity of AChE and BChE, is determined separately. For determination of IC (50) values, the enzyme activity of each concentration was expressed as a percent of that determined in the absence of each compound. This then was transformed into a logit format, where logit=In (% activity/[100-% activity]), and was plotted as a function of the log concentration of the compound. IC (50) values (i.e., logit=In (50/[100−5O]=0) were determined only from correlation coefficients (r^2) of less than −0.985 and when more than 50% inhibition was achieved from duplicate samples. The selectivity ratio is then determined by comparing the IC (50) values obtained for each compound with AChE to that for BChE.

[1] = test system: aged Fischer-344 (F344) rats; assay: One-way active avoidance pretraining in straight runway; assay type: in vivo, rat; settings: for mean (s.e.m.) avoidances: pretraining, i.p. daily
From the text: (§1) Male F344 rats 21-22 months old were obtained from Harlan-Sprague-Dawley under contract from the National Institute on Aging. They were maintained two per cage in a vivarium at the Gerontology Research Center under specific pathogen free conditions as characterized previously.
(§2) As previously described, the Stone maze is constructed of translucent plastic with a grid floor wired for scrambled foot shocks and is surrounded by gray walls to reduce availability of extra-maze cues. The only other apparatus was a straight runway (2 m) used for pretraining. Similar to the maze, the runway was also constructed of translucent plastic, and contained a grid floor wired for scrambled foot shocks, and was surrounded by gray walls.
(§3) […] On days 3-5 injections were made 30 min prior to behavioral testing.
Beginning on day 2 rats were provided training in one-way active avoidance in the straight runway. On each trial, the rat had to locomote from the start box to the goal box within 10 s to avoid the onset of foot shock (0.8 mA). Rats received 10 trials on day 2 and 10 trials on day 3. Training was terminated when the rat met a performance criteria of eight avoidances within 10 consecutive trials within a maximum of 30 trials. Only rats meeting this criterion were tested in the Stone maze on the next day.

[2] = test system: aged Fischer-344 (F344) rats; assay: 14-unit T-maze (Stone maze) learning; assay type: in vivo, rat
From the text: In the present study we assessed the effects of chronic cymserine treatment (5 days) on performance of aged Fischer-344 (F344) rats (21-22 months old) in a 14-unint T-maze, referre to as the Stone maze.
as §1, §2, §3
Rats received training in the Stone maze scheduled as a 4-trial session during the morning and afternoon on days 4 and 5. During each trial, the rat had to locomote from a start box to a goal box through five maze segments each separated by guiiltine doors. The reinforcement contingency required the rat to negotiate each segment within 10 s to avoid the onset of mild foot shock (0.8 mA), which was terminated when the animal moved through the door into the next segment. After entry into succeeding segments, the door from the preceding segment was closed to prevent backtracking. Recorded as deviations from the correct pathway, errors were the primary dependent variable and were counted automatically by a series of infrared sensors connected to a microprocessor. Run time from the start box to the goal was also recorded automatically. The frequency and duration of foot shock were recorded on a mechanically operated clock.

[3] = test system: βAPP in human neuroblastoma cell lines; assay: Cellular and secreted βAPP levels by immunoblot; assay type: cell-based
Description: In further studies, the actions of selective AChE (Compounds 2, 3, (phenserine and tolserine) Table 1) and BChE (Compound 4 (cymserine), Table 1) inhibitors were assessed against human neuroblastoma cell lines. Both secreted levels, measured in the conditioned medium, and cellular levels of βAPP, measured in the cell lysates, were assessed and compared to levels achieved in untreated cells.
A methodology that can be employed to determine the ability of a selected compound to regulate cellular and secreted βAPP levels is as follows:
1 to 1.5×10^7 of each cell type (neuronal and non-neuronal) are cultured in their respective medium. Before adding drug, the cells are fed with media containing only 0.5% of FBS (low serum). The cells are then incubated either in the absence or presence of the test compound. Following incubation periods from 12 to 48 hours, the conditioned medium from each plate is collected and both it and the cells are centrifuged at 800 g. for 10 minutes. The conditioned medium is collected and the cells lysed in buffer containing 50 mM Tris-Cl (pH 8.0), 150 mM NaCl, 5 mM EDTA, 2 mM PMSF, 0.5% sodium deoxycholate, 1 ug/ml each of aprotonin, leupeptin and TLCK, and 0.1 ug/ml of pepstatin A. The cells are centrifuged for 10 min at 11,000 g at 4° C. Proteins of the supernatant solution (cell lysate) are measured by the Bradford dye-binding procedure (Bradford, Anal. Biochem. 72: 248-254, 1976).
For polyacrylamide gel electrophoresis and immunoblotting: in control experiments, an equivalent concentration of ethanol was used as a vehicle which is less than 1% in media. Compound dosages of from about 0.15 mM to 0.5 mM may be used. 100 uL of conditioned media or 30 ug of protein from the total cell lysate is separated on a 12% polyacrylamide gel containing SDS (SDS-PAGE). Immunoblot analysis was performed using the avidinbiotyinylated complex detection kit of Vector Laboratories as described by Lahiri, et al., J. Neurosci: Res. 12:777-787 (1994). The antisera employed is from the mAb22C11 clone (Boehringer Mannheim) which recognizes all mature forms of βAPP found in cell membranes as well as the carboxyltruncated soluble forms secreted into the conditioned media and the APP-like protein. Additionally, the mAb6E10 is employed which recognizes residues 1 to 28 of Aβ. […] Biotinylated secondary antibodies, horse anti-mouse and goat anti-rabbit (Boehringer Mannheim, and Vector Labs) are also used.

secreted βAPP in CSF = assay: CSF βAPP in rats with or without forebrain cholinergic (nbM) lesions; assay type: in vivo, rat
From the text: Cymserine, a representative of selective BChE inhibitors, additionally alters βAPP synthesis/processing in vivo.
A methodology that can be employed to determine the ability of a selected compound to regulate secreted βAPP levels in vivo is as follows:
For forebrain cholinergic system lesions, rats receive a unilateral subcortical lesion of the nucleus basalis of Meynert (nbM) using N-methyl-D-aspartate (NMDA) as an excitotoxin. In undertaking this, rats are anesthetized and placed in a stereotaxic apparatus with the upper incisor bar set level with the intra-aural line. A 33 gauge infusion cannula is lowered into two sites within the nbM on one side of the brain (AP bregma, ML −2.8 mm, DV −8.0 mm re: skull and AP bregma −0.8 mm, ML −3.0 mm, DV −7.8 mm, respectively). One microliter of a solution of 50 mM NMDA in PBS buffer (physiological pH) is slowly infused into each site. Controls for the lesion are vehicle alone and the contralateral side of NMDA treated animals.
Collection of CSF for analysis of βAPP levels is undertaken by withdrawal of an aliquot from the cistern magna of rats immediately following their death. Quantitation of βAPP is undertaken by immunoblot analysis utilizing mAb22C11.

[4] = Brain and plasma time-dependent kinetics by HPLC; assay type: in vivo; settings: rat
Description: Determination of the brain and plasma time-dependent kinetics of cymserine in the rats is undertaken by administering compound into the saphenous vein of anesthetized animals. Animals are killed by excess anesthetic at specific times and blood and brain samples are immediately taken. The blood is centrifuged (10,000 g, 2 min), plasma is collected and, together with the sample of brain, is stored at −80° C. Quantitation of concentrations of cymserine is undertaken by high performance liquid chromatography.

[5] = test system: βAPP secretion, glioblastoma, HeLa, neuroblastoma and PCI2 cell lines; settings: neuronal cells treated with cholinesterase inhibitors; cited from earlier work
[6] = 1.0 mg kg, blocks 3 and 4 vs controls

T1 sequence (P06276 29-602): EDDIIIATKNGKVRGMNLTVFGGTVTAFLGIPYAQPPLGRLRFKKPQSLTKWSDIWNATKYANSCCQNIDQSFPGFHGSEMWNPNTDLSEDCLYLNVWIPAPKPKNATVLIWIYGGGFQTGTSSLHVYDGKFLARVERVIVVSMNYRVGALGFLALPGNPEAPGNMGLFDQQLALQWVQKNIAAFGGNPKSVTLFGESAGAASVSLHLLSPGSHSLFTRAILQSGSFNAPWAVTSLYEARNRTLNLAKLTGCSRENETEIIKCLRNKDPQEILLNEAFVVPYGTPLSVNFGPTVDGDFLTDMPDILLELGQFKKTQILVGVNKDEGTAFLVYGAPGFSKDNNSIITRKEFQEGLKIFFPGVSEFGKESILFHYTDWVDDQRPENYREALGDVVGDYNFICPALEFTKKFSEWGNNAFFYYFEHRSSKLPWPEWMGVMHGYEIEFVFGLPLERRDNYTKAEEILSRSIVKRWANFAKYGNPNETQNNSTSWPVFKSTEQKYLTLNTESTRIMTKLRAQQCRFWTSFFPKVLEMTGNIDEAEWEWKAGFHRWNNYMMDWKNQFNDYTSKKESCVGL

## CNC(=O)Oc1ccc2c(c1)C1(C)CCN(C)C1N2Cc1ccccc1 (stereo not drawn) [Compound 30, N^8-benzylnorphysostigmine]
Human plasma BChE
  selectivity of inhibitory action for BChE versus AChE: potent and selective inhibitors of BChE

## CNC(=O)Oc1ccc2c(c1)[C@]1(C)CCN(C)C1N2 (stereo partly drawn) [Compound 34, N^8-norphysostigmine]
Human plasma BChE
  selectivity of inhibitory action for BChE versus AChE: potent and selective inhibitors of BChE

## CC(C)c1ccc(NC(=O)Oc2ccc3c(c2)[C@]2(C)CCN(C)[C@@H]2N3C)cc1 [Compound 4, cymserine]
Human plasma BChE
  selectivity of inhibitory action for BChE versus AChE: selectivity for BChE inhibition
[1]; all dose groups vs control
  effects of drug treatment during pretraining: No effects
[1]; 1 mg kg cymserine group
  mean (s.e.m.) avoidances: 65% (2.8)
[1]; 2 mg kg cymserine group
  mean (s.e.m.) avoidances: 63% (3.8)
[1]; 3 mg kg cymserine group
  mean (s.e.m.) avoidances: 61% (3.9)
[2]; 1 mg kg group vs controls
  errors across all trials: significantly improved performance
[2]; 1.0 mg kg, block 2
  shock duration: significantly reduced
[2]; [6]
  run time: significantly reduced
  shock duration: significantly reduced
  shock frequency: significantly reduced
[2]; 2 mg kg group vs controls
  errors across all trials: significantly improved performance
[2]; 2.0 mg kg, block 4
  run time: significantly reduced
  shock duration: significantly reduced
  shock frequency: significantly reduced
[2]; 3 mg kg dose
  errors in the Stone maze: least effective
[2]; 3 mg kg dose, a few rats
  motoric side effects: fine tremor
[2]; 3.0 mg kg, block 4
  shock duration: significantly different from controls
[2]; all doses, compared with control condition
  number of errors made in the Stone maze: significantly reduced
[2]; chronic treatment (5 days)
  learning / cognitive performance of aged rats in the Stone maze: improves cognitive performance; also recorded: markedly improved
[2]; doses other than 3 mg kg
  side effects: no side effects were noted
[3]; cell lysates, compared to untreated cells
  cellular levels of βAPP: dramatically reduced
[3]; conditioned medium, compared to untreated cells
  secreted βAPP levels: reduced
[3]; immunoblot, FIG. 2
  βAPP levels assessed by mAb22C11 and 6E10: dramatically reduce
[3]; immunoblot, selectivity control
  effect on other secretory proteins, such as HSP-70: without affecting
Secreted βAPP in CSF; animals without cholinergic lesions, cymserine alone versus pure control rats
  levels of βAPP in CSF: reduced
Secreted βAPP in CSF; rats with forebrain cholinergic lesions, intraperitoneal twice daily for 7 days
  elevation of secreted βAPP in CSF: blocks the elevation
Secreted βAPP in CSF; rats, FIG. 3 legend
  CSF βAPPγ levels: reduces
[4]; 1 mg/kg by the intravenous route
  brain levels relative to plasma levels: ~40 fold
[4]; systemic administration
  crossing of the blood-brain barrier: readily cross the blood-brain barrier

## Nc1ccncc1N [3,4 diaminopyridine]
[5]
  secretion of βAPP: none of the other drugs, all classical anticholinesterases, produced a change

## COP(=O)(OC)C(O)C(Cl)(Cl)Cl (stereo not drawn) [metrifonate]
[5]
  secretion of βAPP: none of the other drugs, all classical anticholinesterases, produced a change

## CNC(=O)Oc1ccc2c(c1)[C@]1(C)CCS[C@@H]1N2C [Compound 22, thiaphysovenine]
Human plasma BChE
  selectivity of inhibitory action for BChE versus AChE: selectivity of inhibitory action for BChE

## 3′-methyl-carbamoyl eseroline
Human plasma BChE
  selectivity of inhibitory action for BChE versus AChE: does not provide BChE selectivity

## CNC(=O)Oc1ccc2c(c1)[C@]1(C)CCO[C@@H]1N2C [Compound 26, physovenine]
Human plasma BChE
  selectivity of inhibitory action for BChE versus AChE: selectivity of inhibitory action for BChE

## C=CCN1CCC2(C)c3cc(OC(=O)NC)ccc3N(C)C12 (stereo not drawn) [Compound 20, N^1-allylnorphysostigmine]
Human plasma BChE
  selectivity of inhibitory action for BChE versus AChE: provide BChE selectivity

## Nc1c2c(nc3ccccc13)CCCC2 [tacrine]
[5]
  secretion of βAPP: reducing it

## Cc1ccccc1NC(=O)Oc1ccc2c(c1)[C@]1(C)CCN(C)[C@@H]1N2C [Compound 3, tolserine, reference compound]
Human plasma BChE
  selectivity of inhibitory action for BChE versus AChE: no selectivity for BChE
